The source of these data is US20240247224A1, “SYSTEM AND METHOD FOR RAPID SUSCEPTIBILITY TESTING” (priority 2023, published 2024).

By MIC is commonly meant the lowest concentration found to suppress growth.

For one assay, the system named is AR Isolate AR 0817. In words: Optical scatter phenotypic AST on the instrument, AR Isolate AR 0817. In kind it is cell-based. To be noted: Neisseria gonorrhoeae, FIG. 27, read-out: Our MIC from the instrument. The source says:
(§1) In one embodiment, the application of the system disclosed herein is to conduct phenotypic antimicrobial susceptibility testing on Neisseria gonorrhoeae (NG). NG is a fastidious organism and a difficult organism to culture in liquid nutrient broth. The instant invention uses a proprietary media designed for the broth culture of NG. Using specific antibiotics, each at multiple concentrations in each well within the cassette and allowing bacteria to culture in the presence of antibiotic, one can determine the phenotypic AST results. Data generated and illustrated in the figures was generated from samples ranging from single wells or a plurality of wells within one or more cassettes.
(§2) In one embodiment, the application of the system is to conduct phenotypic antimicrobial susceptibility testing on NG. […]
(§3) The workflow involves use of a sample preparation kit (if and as needed) to process the sample to be tested (based on the sample type). […] The cassette is then loaded into one of the open bays/readers within the instrument. The reader also has an RFID scanner to record the cassette location i.e., the bay/reader it is inserted into within the instrument. The cassette is then autonomously incubated within the instrument, during which all wells within the cassette are read independently by the reader at regular specified time intervals, until the test is complete. […]

The test system of assay [1] is NG 49226 (QC strain). In words: Optical scatter phenotypic AST on the instrument, NG 49226. The assay is classed as cell-based, Neisseria gonorrhoeae. To be noted: read-out: Our MIC based on the curves.
Source text: as §1, §2, §3

Assay [2] deals with NG AR 0165 (Neisseria gonorrhoeae antibiotic resistant isolate 0165). To be noted: FIG. 22; cited from earlier work.
The test system is the same in assay [3]. Description: Optical scatter phenotypic AST on the instrument, NG AR 0165. In kind it is cell-based. To be noted: normalized reading, 650 nm, FIG. 22, read-out: Our MIC based on the curves.
Source text: as §1, §2, §3

Assay [4] concerns NG 49226 (QC strain). To be noted: FIG. 24; cited from earlier work.
The subject of assay [5] is E coli 25922 (QC strain). Description: Optical scatter phenotypic AST on the instrument, E coli 25922. In kind it is cell-based. To be noted: normalized reading, 650 nm, FIG. 25, read-out: Our MIC based on the curves. From the text: (§4) In one embodiment, the application of the system is to conduct phenotypic antimicrobial susceptibility testing on gram positive and gram negative organisms from isolates or directly from a positive blood sample. In this embodiment, our method deploys a series of tightly controlled environmental factors, such as temperature, humidity, CO2, along with the use of Mueller-Hinton-II defined media allowing for the testing of these organisms as specified by CLSI. Using specific antibiotics, at various ranges, antibiotic classes, concentrations across the wells of the cassette and allowing bacteria to culture in the presence of antibiotic, one can determine the phenotypic AST results.
(§5) The workflow involves use of a sample preparation kit (if and as needed) to process the sample to be tested (based on the sample type). […] The cassette is then loaded into one of the open bays/readers within the instrument. The reader also has an RFID scanner to record the cassette location i.e., the bay/reader it is inserted into within the instrument. The cassette is then autonomously incubated within the instrument, during which all wells within the cassette are read independently by the reader at regular specified time intervals, until the test is complete. […] Based on the statistical analysis, if the signal change was determined as significant for a given well that well is considered to have detected the analyte. […]

Assay [6] deals with E coli 25922 (QC strain). To be noted: FIG. 25; cited from earlier work.
A further assay has as its system K pneumoniae 700603. Description: Optical scatter phenotypic AST on the instrument, K pneumoniae 700603. The assay is classed as cell-based. To be noted: K pneumoniae 700603 in CAMHB with blood (to mimic a positive blood culture vial); FIG. 30; read-out: Our MIC based on the curves.
Source text: as §4, §5

For assay [7], the system named is Staphylococcus aureus in diluted positive blood culture sample. In words: Direct-from-positive blood culture AST on the instrument, Staphylococcus aureus. In kind it is cell-based. To be noted: diluted positive blood culture sample from the clinical lab, FIG. 34, read-out: Our MIC based on the curves.
Source text: (§6) In one embodiment, the application of the system is to conduct phenotypic antimicrobial susceptibility testing on gram positive and gram-negative organisms from a positive blood sample without plating for an isolate. In this embodiment, the positive blood sample is adjusted to the desired microbial concentration. In this embodiment our method deploys a series of tightly controlled environmental factors, such as temperature, humidity, CO2, along with the use of Mueller-Hinton-II defined media allowing for the testing of these organisms as specified by CLSI. […]
as §3, with “complete. The test completion is determined either by the prespecified time period for the cassette to be run, or until the software algorithm running the data analysis in real-time determines the necessary change to the call to complete the test.” for “complete.”

Assay [8] shares this test system. Description: In-house broth microdilution test (expected MIC), Staphylococcus aureus. In kind it is cell-based. To be noted: clinical positive blood culture sample, FIG. 34, read-out: expected MIC value (based on in-house broth microdilution test). How it is done:
(§7) BMD refers to liquid suspension of an isolated culture in the presence of varying types and concentrations of antibiotics. The liquid cultures are incubated for a period of time at which the turbidity or cloudiness of the suspension is measured either visually, optically or using other detection means. The turbidity is caused by bacteria multiplying and/or a “growing” culture (resistant), whereas a susceptible culture or isolate would appear as clear or lacking turbidity. Use of a reading device permits this process to be semi-automated.

Assay [9] has as its system NG AR 0179 (Neisseria gonorrhoeae antibiotic resistant isolate 0179). In words: Optical scatter phenotypic AST on the instrument, NG AR 0179. In kind it is cell-based. To be noted: normalized reading, 650 nm, FIG. 23, read-out: Our MIC based on the curves.
Source text: as §1, §2, §3

Assay [10] concerns S aureus 29213 (QC strain). In words: Optical scatter phenotypic AST on the instrument, S aureus 29213. The assay is classed as cell-based. To be noted: S aureus 29213 (QC strain) in cation adjusted Mueller Hinton Broth (CAMHB); FIG. 28; read-out: Our MIC based on the curves.
Source text: as §4, §5

Assay [11] deals with E faecalis 29212 (QC strain). In words: Optical scatter phenotypic AST on the instrument, E faecalis 29212. In kind it is cell-based. To be noted: E faecalis 29212 (QC strain) in CAMHB with blood (to mimic a positive blood culture vial); FIG. 29; read-out: Our MIC based on the curves.
Source text: as §4, §5

Assay [12] relates to E faecalis 29212 (QC strain). To be noted: FIG. 29; cited from earlier work.
The test system of assay [13] is Serratia marcescens in diluted positive blood culture sample. In words: In-house broth microdilution test (expected MIC), Serratia marcescens. The assay is classed as cell-based. To be noted: clinical positive blood culture sample, FIG. 33, read-out: expected MIC value (based on in-house broth microdilution test). As for the experimental part:
as §7
On the technique in general: In broth dilution the organism is exposed to a series of concentrations in liquid medium.

For assay [14] the test system is unchanged. In words: Direct-from-positive blood culture AST on the instrument, Serratia marcescens. In kind it is cell-based. To be noted: diluted positive blood culture sample from the clinical lab, FIG. 33, read-out: Our MIC based on the curves.
Source text: as §6
as §3, with “complete. The test completion is determined either by the prespecified time period for the cassette to be run, or until the software algorithm running the data analysis in real-time determines the necessary change to the call to complete the test.” for “complete.”

Molecules are shown by their SMILES. Values after ≈ are worked out from the molar mass of the structure shown. Read-outs that look alike come from different tables or passages of the source.

`C=CC1=C(C(=O)O)N2C(=O)[C@@H](NC(=O)/C(=N\OCC(=O)O)c3csc(N)n3)[C@H]2SC1` [Cefixime]: the minimal inhibitory concentration (MIC) in the assay with AR Isolate AR 0817 worked out at 0.125 µg/mL (≈ 0.276 µM); in the assay on NG 49226 (QC strain) [1] (Neisseria gonorrhoeae 49226 (QC strain), 5-well cassette system, FIG. 26), 0.008 µg/mL (≈ 0.0176 µM).
With `O=C(O)c1cn(C2CC2)c2cc(N3CCNCC3)c(F)cc2c1=O` [Ciprofloxacin], in assay [2], the “expected MIC value (per CDC agar dilution testing)” value was 8 µg/mL. Also, the minimal inhibitory concentration (MIC) is 4 µg/mL (≈ 12.1 µM) in [3]; 0.002 µg/mL (≈ 0.00604 µM) with NG 49226 (QC strain) [1] (Neisseria gonorrhoeae, NG 49226 (QC strain), normalized reading, 650 nm, FIG. 24); 0.008 µg/mL (≈ 0.0241 µM) in the assay with E coli 25922 (QC strain) [5]. Further, the “expected MIC value range (per CDC agar dilution testing)” value in the assay on NG 49226 (QC strain) [4] was 0.001 to 0.008 µg/mL. For the same molecule, in the assay on E coli 25922 (QC strain) [6], the “expected MIC value range (BMD method)” value was 0.004 to 0.016 µg/mL.
Take `C[C@@H](O)[C@H]1C(=O)N2C(C(=O)O)=C(SCCN=CN)C[C@H]12` [Imipenem]: the minimal inhibitory concentration (MIC) with K pneumoniae 700603 amounted to 0.5 µg/mL (≈ 1.67 µM).
Take `Cc1onc(-c2ccccc2)c1C(=O)N[C@@H]1C(=O)N2[C@@H]1SC(C)(C)[C@@H]2C(=O)O` [Oxacillin]: the MIC in assay [7] and in [8] was more than 2 µg/mL in each case.
Turning to `CN(C)[C@@H]1C(O)=C(C(N)=O)C(=O)[C@@]2(O)C(O)=C3C(=O)c4c(O)cccc4[C@@](C)(O)[C@H]3C[C@@H]12` [Tetracycline], the minimal inhibitory concentration (MIC) in assay [9] was determined as 2 µg/mL (≈ 4.5 µM); in assay [10], 0.008 µg/mL (≈ 0.018 µM).
Take `CN[C@H](CC(C)C)C(=O)N[C@H]1C(=O)N[C@@H](CC(N)=O)C(=O)N[C@H]2C(=O)N[C@H]3C(=O)N[C@H](C(=O)N[C@H](C(=O)O)c4cc(O)cc(O)c4-c4cc3ccc4O)[C@H](O)c3ccc(c(Cl)c3)Oc3cc2cc(c3O[C@@H]2O[C@H](CO)[C@@H](O)[C@H](O)[C@H]2O[C@H]2C[C@](C)(N)[C@H](O)[C@H](C)O2)Oc2ccc(cc2Cl)[C@H]1O` [Vancomycin]: the MIC in assay [11] was 4 µg/mL (≈ 2.76 µM). For the same molecule, the “expected MIC value” in assay [12] was 1 to 4 µg/mL.
Take `CC1(C)S[C@@H]2[C@H](NC(=O)[C@H](N)c3ccccc3)C(=O)N2[C@H]1C(=O)O` [ampicillin]: the MIC in assay [13] was more than 16 µg/mL; in assay [14] it was 16 µg/mL (≈ 45.8 µM).
